Data published in US6518262B1, “22R-hydroxycholesta-8, 14-diene derivatives for the inhibition of meiosis” (Akzo Nobel N.V., priority 1999, dated 2003).

Test system: denuded oocytes (DO)
Assay: Oocyte assay, agonistic testing, denuded oocytes (DO assay)
Format: cell-based, mice (B6D2-F1, strain C57BL×DBA)
Settings: compound 5 μM, hypoxanthine medium, 22 hours culture, control value in brackets
Description: Oocytes arrested in meiosis contain diffused chromosomes which are surrounded by an intact nuclear envelope known as the germinal vesicle (GV). Upon reinitiation of meiosis by the midcycle gonadotropin surge, the chromosomes recondense and the GV breaks down (GVBD). In vivo, the oocyte is exposed to hypoxanthine (HX), which maintains the oocyte arrested in the meiotic prophase. This meiotic arrest can be mimicked in vitro by addition of hypoxanthine to the culture medium. The agonistic activity of meiosis activating substances is measured as the ability to overcome the hypoxanthine maintained meiotic arrest in denuded oocytes (DO) or cumulus enclosed oocytes (CEO), i.e. as the ability to induce meiotic resumption in vitro.
Ovaries are obtained from immature female mice (B6D2-F1, strain C57BL×DBA). At the age of 19, 20 or 21 days the mice are injected subcutaneously with a single dose of 20 IU follicle stimulating hormone (Humegon, Organon, The Netherlands) in saline.
Forty-eight hours after follicle stimulating hormone injection mice are killed by cervical dislocation. The ovaries are removed, freed of extraneous tissue and placed in a multidish containing 0.5 ml preparation medium at 37° C. L-15 Leibovitz medium (Gibco, pH 7.3±0.1) supplemented with bovine serum albumin (3 mg·ml^−1), L-glutamine (0.23 mM), sodium pyruvate (2 mM) and hypoxanthine (4 mM) is used as preparation medium. The antral follicles of the ovaries are punctured under a dissecting microscope using two 27-gauge needles attached to two 1 ml syringes. Cumulus enclosed oocytes (CEO) of uniform size are selected with a mouth-controlled pipette and rinsed in 0.5 ml fresh preparation medium. About 20 CEO are obtained from one ovary.
Oocytes freed from cumulus cells, i.e. denuded oocytes (DO), are obtained by gently flushing CEO through a fine-bore mouth-controlled pipette. DO were collected in fresh MEM alpha medium, containing bovine serum albumin (3 mg·ml^−1), L-glutamine (0.23 mM), sodium pyruvate (2 mM) and hypoxanthine (4 mM), and washed twice before transfer to the test medium.
The oocyte assay is performed in 3 blocks, each block represents the ovaries of one mouse (randomized block design). […] At t=0 the number of oocytes with intact germinal vesicles (GV) or germinal vesicle break-down (GVBD) is counted under an inverted microscope with differential interference contrast equipment. […] At the end of the culture period the number of oocytes with GV or GVBD per group is counted. For statistical analysis the percentage germinal vesicle breakdown is calculated for each group in one block. These percentages are subjected to arcsin transformation, and differences between control and test compounds are analyzed by an ANOVA test for a randomized block design. […]

Row | SMILES | % GVBD DO assay exp.
1 | CC(C)CC[C@@H](O)[C@@H](C)[C@H]1CC=C2C3=C(CC[C@@]21C)[C@@]1(C)CC[C@H](O)C(C)(C)[C@@H]1CC3 [Example 1, (3β,5α,20S,22R)-4,4-Dimethylcholesta-8,14-diene-3,22-diol] | 0(0) %
2 | CC(C)=CC[C@@H](O)[C@@H](C)[C@H]1CC=C2C3=C(CC[C@@]21C)[C@@]1(C)CC[C@H](O)C(C)(C)[C@@H]1CC3 [Example 2, (3β,5α,20S,22R)-4,4-Dimethylcholesta-8,14,24-triene-3,22-diol] | 3(3) %
